Laboratory results: ChEMBL document CHEMBL3797106, “Potent and Selective Agonists of Sphingosine 1-Phosphate 1 (S1P1): Discovery and SAR of a Novel Isoxazole Based Series” (J Med Chem, 2016)
Activity calls are given as the source filed them. The rule behind the calls is not given here.

Tests used:
Rattus norvegicus [1] = experiment: Reduction of blood lymphocyte level in Lewis rat at 1 mg/kg, po measured at 4 hrs by hematology analyzer relative to vehicle-treated control; assay type: functional; parameters: scale not given: the % may be the effect or the level left
Rattus norvegicus [2] = experiment: Antiarthritic activity in complete Freund's adjuvant-induced Lewis rat arthritis model assessed as suppression of paw swelling at 0.5 to 3 mg/kg, po qd for 21 days started from day of immunization measured 3 times per week of compound dosing by water displacement plethysmometry; assay type: functional, organism-based
Rattus norvegicus [3] = experiment: Antiarthritic activity in complete Freund's adjuvant-induced Lewis rat arthritis model assessed as suppression of paw swelling at 0.03 mg/kg, po qd for 21 days started from day of immunization measured 3 times per week of compound dosing by water displacement plethysmometry; assay type: functional, organism-based
Rattus norvegicus [4] = experiment: Reduction of blood lymphocyte level in Lewis rat at 0.03 mg/kg, po measured at 24 hrs by hematology analyzer relative to vehicle-treated control; assay type: functional; parameters: scale not given: the % may be the effect or the level left
[5] = AUC in dog at 1 mg/kg, po; assay type: ADME, organism-based, Canis lupus familiaris; settings: in vivo
[6] = Half life in mouse at 2 mg/kg, iv; assay type: ADME, organism-based; settings: in vivo
[7] = Permeability of the compound at pH 7.4 by PAMPA; assay type: ADME; settings: read-out: permeability
Rattus norvegicus [8] = experiment: Reduction of blood lymphocyte level in Lewis rat at 0.3 mg/kg, po measured at 4 hrs by hematology analyzer relative to vehicle-treated control; assay type: functional; parameters: scale not given: the % may be the effect or the level left
[9] = biological target: T1, Sphingosine 1-phosphate receptor 1 (Homo sapiens, UniProt P21453); experiment: Induction of internalization of C-terminal GFP-fused human S1P1 receptor expressed in CHO […] assessed as remaining receptor level in cell membrane at 4.6 nM preincubated for 50 mins followed by compound washout measured at 16 hrs relative to control; assay type: cell-based
[10] = biological target: T1, Sphingosine 1-phosphate receptor 1; experiment: Induction of internalization of C-terminal GFP-fused human S1P1 receptor expressed in CHO […] assessed as remaining receptor level in cell membrane at 4.6 nM preincubated for 50 mins followed by compound washout measured at 4 hrs relative to control; assay type: cell-based
[11] = Tmax in dog at 1 mg/kg, po; assay type: ADME, organism-based, Canis lupus familiaris; settings: in vivo
[12] = Clearance in cynomolgus monkey at 2 mg/kg, iv; assay type: ADME, organism-based, Macaca fascicularis; settings: in vivo
[13] = Plasma concentration in Lewis rat at 0.3 mg/kg, po measured at 4 hrs; assay type: ADME, organism-based
[14] = AUC in cynomolgus monkey at 5 mg/kg, po; assay type: ADME, organism-based, Macaca fascicularis; settings: in vivo
[15] = Tmax in cynomolgus monkey at 5 mg/kg, po; assay type: ADME, organism-based, Macaca fascicularis; settings: in vivo
[16] = Tmax in mouse at 10 mg/kg, po; assay type: ADME, organism-based; settings: in vivo
Cytochrome P450 2C9 = Cytochrome P450 2C9 (Homo sapiens, UniProt P11712); experiment: Inhibition of CYP2C9 (unknown origin); assay type: ADME
Plasma [17] = experiment: Ratio drug level in Lewis rat plasma at 0.03 mg/kg, po at 4 hrs to drug level in Lewis rat plasma at 0.03 mg/kg, po at 24 hrs; assay type: ADME, organism-based; settings: in vivo
[18] = Volume of distribution at steady state in cynomolgus monkey at 2 mg/kg, iv; assay type: ADME, organism-based, Macaca fascicularis; settings: in vivo, read-out: Vdss
Cynomolgus monkey [19] = experiment: Ratio of Cmax to Cmin in cynomolgus monkey at 5 mg/kg, po; assay type: ADME, organism-based, Macaca fascicularis; settings: in vivo
Plasma [20] = experiment: Ratio drug level in Lewis rat plasma at 0.3 mg/kg, po at 4 hrs to drug level in Lewis rat plasma at 0.3 mg/kg, po at 24 hrs; assay type: ADME, organism-based; settings: in vivo
[21] = Plasma protein binding in monkey; assay type: ADME, cell-free, Macaca mulatta; settings: rhesus monkey, read-out: PPB (converted)
Salmonella typhi = experiment: Mutagenicity in Salmonella typhi by Ames test; assay type: toxicity, organism-based; settings: salmonella enterica subsp. enterica […]
Cynomolgus monkey [22] = experiment: Clearance in cynomolgus monkey at 2 mg/kg, iv relative to hepatic blood flow; assay type: ADME, organism-based, Macaca fascicularis; settings: in vivo
Homo sapiens = organism: Homo sapiens; experiment: Inhibition of sodium channel (unknown origin) at 10 uM by patch clamp method relative to control
Mus musculus [23] = experiment: Reduction in clinical score in po dosed C57BL/6 mouse experimental autoimmune encephalomyelitis model of multiple sclerosis administered as qd for 24 days started from day of immunization measured 3 times per week of compound dosing; assay type: functional; settings: C57BL/6, po, 576 h
Cytochrome P450 2C8 = biological target: T2, Cytochrome P450 2C8 (Homo sapiens, UniProt P10632); experiment: Inhibition of CYP2C8 (unknown origin); assay type: ADME
T2 sequence (P10632 whole entry): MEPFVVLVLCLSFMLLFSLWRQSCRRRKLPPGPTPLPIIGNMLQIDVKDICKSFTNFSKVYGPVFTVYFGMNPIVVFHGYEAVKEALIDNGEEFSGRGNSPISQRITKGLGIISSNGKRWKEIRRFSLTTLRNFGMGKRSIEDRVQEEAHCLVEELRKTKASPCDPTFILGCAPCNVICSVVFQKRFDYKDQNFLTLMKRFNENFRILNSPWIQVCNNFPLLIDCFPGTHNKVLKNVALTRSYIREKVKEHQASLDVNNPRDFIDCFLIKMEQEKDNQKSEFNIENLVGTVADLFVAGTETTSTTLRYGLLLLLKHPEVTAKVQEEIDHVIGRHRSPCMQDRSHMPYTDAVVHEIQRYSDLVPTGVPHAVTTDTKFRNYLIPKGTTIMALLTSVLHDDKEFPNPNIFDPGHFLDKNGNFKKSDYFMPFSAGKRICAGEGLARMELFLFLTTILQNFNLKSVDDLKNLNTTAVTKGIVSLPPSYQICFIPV

Rattus norvegicus [24] = experiment: Reduction of blood lymphocyte level in Lewis rat at 0.3 mg/kg, po measured at 24 hrs by hematology analyzer relative to vehicle-treated control; assay type: functional; parameters: scale not given: the % may be the effect or the level left
[25] = Half life in cynomolgus monkey at 2 mg/kg, iv; assay type: ADME, organism-based, Macaca fascicularis; settings: in vivo
Rattus norvegicus [26] = experiment: Clearance in rat at 2 mg/kg, iv relative to hepatic blood flow; assay type: ADME, organism-based; settings: in vivo
Cytochrome P450 2C19 = Cytochrome P450 2C19 (Homo sapiens, UniProt P33261); experiment: Inhibition of CYP2C19 (unknown origin); assay type: ADME
Rattus norvegicus [27] = experiment: Antiarthritic activity in po dosed complete Freund's adjuvant-induced Lewis rat arthritis model assessed as inhibition of paw inflammation administered as qd for 21 days started from day of immunization; assay type: functional, organism-based
[28] = Oral bioavailability in dog at 1 mg/kg; assay type: ADME, organism-based, Canis lupus familiaris; settings: in vivo
[29] = Plasma protein binding in human; assay type: ADME, cell-free; settings: read-out: PPB (converted)
[30] = biological target: Voltage-gated inwardly rectifying potassium channel KCNH2 (Homo sapiens, UniProt Q12809); experiment: Inhibition of human ERG by patch clamp method
Canis familiaris = experiment: Clearance in dog at 1 mg/kg, iv relative to hepatic blood flow; assay type: ADME, organism-based, Canis lupus familiaris, Liver; settings: in vivo
[31] = Lipophilicity, log D of the compound at pH 6.5; assay type: physicochemical; settings: buffer
Mus musculus [32] = experiment: AUC in mouse at 10 mg/kg, po; assay type: ADME, organism-based; settings: in vivo
[33] = Plasma protein binding in dog; assay type: ADME, cell-free, Canis lupus familiaris; settings: read-out: PPB
Mus musculus [34] = experiment: Oral bioavailability in mouse at 10 mg/kg; assay type: ADME, organism-based; settings: in vivo
Plasma [35] = experiment: Ratio drug level in Lewis rat plasma at 1 mg/kg, po at 4 hrs to drug level in Lewis rat plasma at 1 mg/kg, po at 24 hrs; assay type: ADME, organism-based; settings: in vivo
[36] = Plasma concentration in Lewis rat at 0.03 mg/kg, po measured at 4 hrs; assay type: ADME, organism-based
[37] = Half life in dog at 1 mg/kg, iv; assay type: ADME, organism-based, Canis lupus familiaris; settings: in vivo

T1 sequence (P21453 whole entry, the tested form may be a part): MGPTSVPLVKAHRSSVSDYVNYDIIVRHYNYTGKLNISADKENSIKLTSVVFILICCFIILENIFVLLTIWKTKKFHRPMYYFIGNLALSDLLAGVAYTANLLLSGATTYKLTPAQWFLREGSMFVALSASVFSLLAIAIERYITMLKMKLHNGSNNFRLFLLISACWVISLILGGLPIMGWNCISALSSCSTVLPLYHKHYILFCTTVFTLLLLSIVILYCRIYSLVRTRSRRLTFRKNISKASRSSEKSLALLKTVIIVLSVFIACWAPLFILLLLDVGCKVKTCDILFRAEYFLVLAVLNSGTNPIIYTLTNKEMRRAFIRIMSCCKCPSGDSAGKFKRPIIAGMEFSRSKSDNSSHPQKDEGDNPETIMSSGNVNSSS
Cytochrome P450 2C19, sequence (P33261 whole entry): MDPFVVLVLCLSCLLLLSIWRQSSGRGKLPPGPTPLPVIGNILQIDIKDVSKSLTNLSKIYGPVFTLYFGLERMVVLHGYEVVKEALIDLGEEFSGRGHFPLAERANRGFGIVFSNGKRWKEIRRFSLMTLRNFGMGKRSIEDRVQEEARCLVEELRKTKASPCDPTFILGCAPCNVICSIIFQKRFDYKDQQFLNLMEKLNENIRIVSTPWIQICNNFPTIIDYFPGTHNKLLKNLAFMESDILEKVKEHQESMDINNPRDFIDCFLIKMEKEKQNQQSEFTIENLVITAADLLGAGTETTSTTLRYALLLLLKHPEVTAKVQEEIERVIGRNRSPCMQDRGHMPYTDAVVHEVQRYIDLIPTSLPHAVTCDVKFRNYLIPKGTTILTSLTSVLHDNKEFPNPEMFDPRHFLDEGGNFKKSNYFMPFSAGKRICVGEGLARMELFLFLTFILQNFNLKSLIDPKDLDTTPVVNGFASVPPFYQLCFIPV
Voltage-gated inwardly rectifying potassium channel KCNH2, sequence (Q12809 whole entry): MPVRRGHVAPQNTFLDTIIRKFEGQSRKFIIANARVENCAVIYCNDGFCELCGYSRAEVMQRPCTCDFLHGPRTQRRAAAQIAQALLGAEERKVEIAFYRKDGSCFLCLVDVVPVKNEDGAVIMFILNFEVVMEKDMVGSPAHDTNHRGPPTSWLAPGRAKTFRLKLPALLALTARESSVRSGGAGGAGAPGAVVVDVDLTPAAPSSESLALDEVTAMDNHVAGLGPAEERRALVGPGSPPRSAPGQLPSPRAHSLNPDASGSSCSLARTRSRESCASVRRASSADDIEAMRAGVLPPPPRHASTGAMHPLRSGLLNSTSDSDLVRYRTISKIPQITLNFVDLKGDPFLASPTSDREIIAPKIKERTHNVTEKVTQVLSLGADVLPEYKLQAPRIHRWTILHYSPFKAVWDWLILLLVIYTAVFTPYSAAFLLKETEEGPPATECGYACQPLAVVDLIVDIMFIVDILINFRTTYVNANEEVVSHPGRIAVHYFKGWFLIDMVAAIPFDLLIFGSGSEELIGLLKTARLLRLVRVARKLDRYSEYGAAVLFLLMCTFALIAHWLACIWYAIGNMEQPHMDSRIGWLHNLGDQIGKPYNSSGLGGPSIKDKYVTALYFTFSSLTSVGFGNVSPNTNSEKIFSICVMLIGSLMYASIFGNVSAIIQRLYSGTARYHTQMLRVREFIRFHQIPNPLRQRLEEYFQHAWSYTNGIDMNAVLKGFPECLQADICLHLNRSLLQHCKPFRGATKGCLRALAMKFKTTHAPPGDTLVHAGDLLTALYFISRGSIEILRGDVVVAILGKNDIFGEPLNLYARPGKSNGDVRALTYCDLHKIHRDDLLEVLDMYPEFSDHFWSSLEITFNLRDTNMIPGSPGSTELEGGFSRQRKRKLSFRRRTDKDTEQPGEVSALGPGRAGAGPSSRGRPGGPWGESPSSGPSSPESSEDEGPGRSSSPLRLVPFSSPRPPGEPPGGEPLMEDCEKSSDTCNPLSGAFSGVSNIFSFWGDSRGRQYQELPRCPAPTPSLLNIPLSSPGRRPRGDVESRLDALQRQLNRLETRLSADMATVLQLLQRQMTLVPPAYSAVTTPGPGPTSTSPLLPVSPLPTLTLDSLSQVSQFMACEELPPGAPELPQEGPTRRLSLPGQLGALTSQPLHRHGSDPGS
Cytochrome P450 2C9, sequence (P11712 whole entry): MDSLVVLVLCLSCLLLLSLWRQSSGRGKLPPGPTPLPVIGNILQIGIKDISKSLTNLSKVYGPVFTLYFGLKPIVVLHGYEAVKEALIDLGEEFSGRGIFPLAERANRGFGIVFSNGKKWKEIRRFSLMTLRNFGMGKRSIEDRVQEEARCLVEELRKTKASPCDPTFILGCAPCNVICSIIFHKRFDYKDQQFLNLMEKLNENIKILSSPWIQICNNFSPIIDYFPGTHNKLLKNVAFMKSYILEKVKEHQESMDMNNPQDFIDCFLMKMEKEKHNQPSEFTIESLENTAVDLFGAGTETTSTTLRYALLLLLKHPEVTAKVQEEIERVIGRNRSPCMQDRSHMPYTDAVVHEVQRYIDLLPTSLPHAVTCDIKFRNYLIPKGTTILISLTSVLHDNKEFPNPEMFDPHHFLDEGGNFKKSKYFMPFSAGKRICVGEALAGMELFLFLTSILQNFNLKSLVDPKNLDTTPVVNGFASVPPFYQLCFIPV

O=C(O)C1CN(Cc2ccc(-c3noc(-c4onc(-c5ccccc5)c4C(F)(F)F)n3)cc2)C1
Activity (Rattus norvegicus [1]): 78% | Activity (Rattus norvegicus [2]): Active | Activity (Rattus norvegicus [3]): inactive | Activity (Rattus norvegicus [4]): 45% | AUC [5]: 11 µM·h | half-life [6]: 9.8 h | Papp [7]: 103 ×10⁻⁶ cm/s | Activity (Rattus norvegicus [8]): 82% | Activity [9]: 40% | Activity [10]: 20% | Tmax [11]: 8.9 h | clearance [12]: 5.2 mL/min/kg | concentration at 4 h [13]: 180 nM | AUC [14]: 25 µM·h | Tmax [15]: 1 h | Tmax [16]: 3 h | IC50 (Cytochrome P450 2C9): > 40 µM | Ratio (Plasma [17]): 5 | Vd [18]: 0.6 L/kg | Ratio (Cynomolgus monkey [19]): 37 | Ratio (Plasma [20]): 7 | fraction unbound [21]: 0.007 | Activity (Salmonella typhi): Non-toxic | CL (Cynomolgus monkey [22]): 12% | inhibition (Homo sapiens): < 5% | ED50 (Mus musculus [23]): 0.02 mg/kg | IC50 (Cytochrome P450 2C8): > 40 µM | Activity (Rattus norvegicus [24]): 73% | half-life [25]: 3 h | CL (Rattus norvegicus [26]): 2.4% | IC50 (Cytochrome P450 2C19): > 40 µM | inhibition (Rattus norvegicus [27]): Dose-dependent effect | bioavailability [28]: 45% | fraction unbound [29]: 0.003 | IC50 [30]: 18 µM | CL (Canis familiaris): 5.2% | logD [31]: 2.68 | AUC (Mus musculus [32]): 250 µM·h | fraction unbound [33]: 0.01 | F (Mus musculus [34]): 71% | Ratio (Plasma [35]): 3 | concentration at 4 h [36]: 20 nM | half-life [37]: 7.4 h
